The text below walks through data of ChEMBL document CHEMBL1128916, “Phosphoramidate derivatives of d4T with improved anti-HIV efficacy retain full activity in thymidine kinase-deficient cells” (Bioorg Med Chem Lett, 1996).

Holding throughout (settings): Homo sapiens
Assay [1] relates to CCRF-CEM. In words: Compound was evaluated for the inhibition of HIV replication using HIV-1 infected CEM cells. The class given is functional, cell-based.
For assay [2], the system named is CCRF-CEM. The assay can be described thus: Compound was evaluated for the inhibition of HIV replication using HIV-2 infected CEM cells. The class given is functional, cell-based.
Assay [3] deals with CCRF-CEM. The assay can be described thus: Compound was evaluated for the inhibition of HIV replication using HIV-2 infected CEM-TK- cells. The class given is functional, cell-based.
The test system of assay [4] is CCRF-CEM. In words: Compound was evaluated for the cytotoxic concentration to inhibit HIV replication in CEM cells. The class given is functional.

Each structure is given as a SMILES string.

Take `COC(=O)C(C)NP(=O)(OC[C@@H]1C=C[C@H](n2cc(C)c(=O)[nH]c2=O)O1)Oc1ccccc1` (stereo partly specified): the EC50 (commonly the midpoint of the concentration-response curve) amounted to 85 nM in the assay with CCRF-CEM [1], 102 nM in the assay with CCRF-CEM [2] and 75 nM in the assay with CCRF-CEM [3]. The 50% cytotoxic concentration (CC50) (usually the concentration giving 50% cytotoxicity) with CCRF-CEM [4] was more than 100000 nM.

As for `Cc1cn(C2C=CC(COP(=O)(NC(C)C(=O)OCc3ccccc3)Oc3ccccc3)O2)c(=O)[nH]c1=O` (stereo unspecified), the half-maximal effective concentration (EC50) was found to be 22 nM with CCRF-CEM [1], 39 nM in the assay on CCRF-CEM [2] and 60 nM with CCRF-CEM [3]. Also, half-maximal cytotoxicity in the assay on CCRF-CEM [4] (CC50) was put at 52000 nM.

As to `Cc1cn([C@H]2C=C[C@@H](CO)O2)c(=O)[nH]c1=O` [STAVUDINE], the figures for the EC50 in the assay with CCRF-CEM [1], with CCRF-CEM [2] and in the assay on CCRF-CEM [3] were 160 nM, 270 nM and 25000 nM, respectively. The same compound returned a CC50 in the assay with CCRF-CEM [4] of more than 100000 nM.

For the compound `Cc1cn([C@H]2C[C@H](N=[N+]=[N-])[C@@H](CO)O2)c(=O)[nH]c1=O` [ZIDOVUDINE], the EC50 with CCRF-CEM [1] is 5 nM; in the assay with CCRF-CEM [2], 8 nM; in the assay on CCRF-CEM [3], more than 100000 nM. The compound also yielded a CC50 in the assay with CCRF-CEM [4] of more than 100000 nM.
